Patent US9353072B2, “Antimicrobial substituted thiazoles and methods of use” (Purdue Research Foundation, priority 2012, dated 2016)
≈ marks a conversion by molar mass, not a printed value. Where two headings read alike, the source gives them in different places.

Columns and labels:
MRSA ATCC 43300 = experiment: MIC/MBC broth microdilution, MRSA ATCC 43300; assay type: cell-based, Staphylococcus aureus
Method: (§1) Determination of minimum inhibitory concentration (MIC). The MICs of the lead thiazole compound (compound 1a) and nine derivatives tested against all 18 MRSA strains were determined, in triplicate samples, using the broth microdilution method in accordance with the recommendations contained in the CLSI guidelines.

[1] = system: MRSA ATCC 700699 (NRS1, VISA); experiment: MIC/MBC broth microdilution, NRS1 (ATCC 700699); assay type: cell-based; conditions: Staphylococcus aureus, Table 8, NRS1 (VISA)
Method: as §1

VISA HIP07256 (NRS19) = experiment: MIC/MBC broth microdilution, NRS19 (VISA HIP07256); assay type: cell-based; conditions: Staphylococcus aureus, Table 8, NRS19 (VISA)
Method: as §1

VISA LIM 3 (NRS37) = experiment: MIC/MBC broth microdilution, NRS37 (VISA LIM 3); assay type: cell-based; conditions: Staphylococcus aureus, Table 8, NRS37 (VISA)
Method: as §1

NRS107 = experiment: MIC/MBC broth microdilution, NRS107; assay type: cell-based; conditions: Staphylococcus aureus
Method: as §1

NRS119 = experiment: MIC/MBC broth microdilution, NRS119; assay type: cell-based; conditions: Staphylococcus aureus, Table 8, NRS119
Method: as §1

MRSA USA400 (NRS123) = experiment: MIC/MBC broth microdilution, NRS123 (USA400); assay type: cell-based; conditions: Staphylococcus aureus, Table 8, NRS123
Method: as §1

NRS194 = experiment: MIC/MBC broth microdilution, NRS194; assay type: cell-based; conditions: Staphylococcus aureus
Method: as §1

MRSA NRS384 (USA300) = experiment: MIC/MBC broth microdilution, NRS384 (USA300); assay type: cell-based; conditions: Staphylococcus aureus
Method: as §1

MRSA USA500 (NRS385) = experiment: MIC/MBC broth microdilution, NRS385 (USA500); assay type: cell-based; conditions: Staphylococcus aureus, Table 8, NRS385
Method: as §1

[2] = Staphylococcus aureus, Table 6, MRSA ATCC 43300, 128 μM down to 1.0 μM, 20 hours, read-out: MIC
[3] = Staphylococcus aureus, Table 4, MRSA ATCC 43300, 64 μM down to 0.5 μM, 37° C., 19 hours, read-out: Minimum Inhibitory Concentration
[4] = Table 5, MRSA NRS384 (USA300), 128 μM down to 1.0 μM, 37° C., 19 hours, read-out: Minimum Inhibitory Concentration

## COc1cc(OC)cc(-c2ccc(-c3nc(C)c(C(C)=O)s3)cc2)c1 [Compound M19, 1-(2-(3′,5′-dimethoxy-[1,1′-biphenyl]-4-yl)-4-methylthiazol-5-yl)ethanone]
MRSA ATCC 43300; Staphylococcus aureus, 20 h
  MIC: > 128 µM

## [H]/N=C(/N)NN=C(C)c1sc(-c2cc[nH]n2)nc1C [Compound M20]
MRSA ATCC 43300; Table 6, MRSA ATCC 43300, 128 μM down to 1.0 μM, 20 hours, read-out: MIC
  MIC: 8 µM (≈ 2.11 µg/mL)

## CC(=O)c1sc(-c2ccc(-c3ccc(-c4nc(C)c(C(C)=O)s4)cc3)cc2)nc1C [Compound M21, 1,1′-(2,2′-([1,1′-Biphenyl]-4,4′-diyl)bis(4-methylthiazole-5,2-diyl))diethanone]
MRSA ATCC 43300; [2]
  MIC: > 128 µM

## CC(=O)c1sc(-c2cc[nH]n2)nc1C [Compound M22, 1-(4-Methyl-2-(1H-pyrazol-3-yl)thiazol-5-yl)ethanone]
MRSA ATCC 43300; [2]
  MIC: > 128 µM

## CC(=O)c1sc(-c2ccc(-c3ccc(-c4ccccc4)cc3)cc2)nc1C [Compound M23, 1-(2-([1,1′:4′,1″-Terphenyl]-4-yl)-4-methylthiazol-5-yl)ethanone]
MRSA ATCC 43300; [2]
  MIC: > 128 µM

## C/C(=N/NC(=N)N)c1sc(-c2cc[nH]n2)nc1C [Compound M24, (Z)-2-(1-(4-methyl-2-(1H-pyrazol-3-yl)thiazol-5-yl)ethylidene)hydrazinecarboximidamide]
MRSA ATCC 43300; [2]
  MIC: > 128 µM

## CCCCC#Cc1ccc(-c2nc(C)c(/C(C)=N/NC(=N)N)s2)cc1 [Compound R1, (E)-2-(1-(2-(4-(hex-1-yn-1-yl)phenyl)-4-methylthiazol-5-yl)ethylidene)hydrazinecarboximidamide]
MRSA ATCC 43300; [3]
  MIC: 4 µM (≈ 1.41 µg/mL)
MRSA ATCC 43300; Staphylococcus aureus, Table 8, ATCC 43300, read-out: MBC
  MBC: 4 µM (≈ 1.41 µg/mL)
MRSA ATCC 43300; Staphylococcus aureus, Table 8, ATCC 43300, read-out: MIC
  MIC: 4 µM (≈ 1.41 µg/mL)
[1]; read-out: MBC
  MBC: 2 µM (≈ 0.707 µg/mL)
[1]; triplicates, 20 hours, read-out: MIC
  MIC: 2 µM (≈ 0.707 µg/mL)
VISA HIP07256 (NRS19); read-out: MBC
  MBC: 4 µM (≈ 1.41 µg/mL)
VISA HIP07256 (NRS19); read-out: MIC
  MIC: 4 µM (≈ 1.41 µg/mL)
VISA LIM 3 (NRS37); read-out: MBC
  MBC: 4 µM (≈ 1.41 µg/mL)
VISA LIM 3 (NRS37); read-out: MIC
  MIC: 4 µM (≈ 1.41 µg/mL)
NRS107; Table 8, read-out: MBC
  MBC: 4 µM (≈ 1.41 µg/mL)
NRS107; Table 8, read-out: MIC
  MIC: 4 µM (≈ 1.41 µg/mL)
NRS119; read-out: MBC
  MBC: 4 µM (≈ 1.41 µg/mL)
NRS119; read-out: MIC
  MIC: 4 µM (≈ 1.41 µg/mL)
MRSA USA400 (NRS123); read-out: MBC
  MBC: 4 µM (≈ 1.41 µg/mL)
MRSA USA400 (NRS123); read-out: MIC
  MIC: 4 µM (≈ 1.41 µg/mL)
NRS194; Table 8, read-out: MBC
  MBC: 4 µM (≈ 1.41 µg/mL)
NRS194; Table 8, read-out: MIC
  MIC: 4 µM (≈ 1.41 µg/mL)
MRSA NRS384 (USA300); Table 8, NRS384, read-out: MBC
  MBC: 4 µM (≈ 1.41 µg/mL)
MRSA NRS384 (USA300); Table 8, NRS384, read-out: MIC
  MIC: 4 µM (≈ 1.41 µg/mL)
MRSA USA500 (NRS385); read-out: MBC
  MBC: 4 µM (≈ 1.41 µg/mL)
MRSA USA500 (NRS385); read-out: MIC
  MIC: 4 µM (≈ 1.41 µg/mL)

## CCCCc1ccc(-c2nc(C)c(-c3nnn[nH]3)s2)cc1 [Compound R2, 2-(4-butylphenyl)-4-methyl-5-(1H-tetrazol-5-yl)thiazole]
MRSA ATCC 43300; [3]
  MIC: > 64 µM

## CCCCc1ccc(-c2nc(C)c(C(=O)NNC(=O)c3sc(-c4ccc(CCCC)cc4)nc3C)s2)cc1 [Compound R3, 2-(4-butylphenyl)-N′-(2-(4-butylphenyl)-4-methylthiazole-5-carbonyl)-4-methylthiazole-5-carbohydrazide]
MRSA ATCC 43300; [3]
  MIC: > 64 µM

## CCCCc1ccc(-c2nc(C)c(C(=O)NNC(=N)N)s2)cc1 [Compound R5, 2-(2-(4-butylphenyl)-4-methylthiazole-5-carbonyl)hydrazinecarboximidamide]
MRSA ATCC 43300; [3]
  MIC: > 64 µM

## CCCCc1ccc(-c2nc(C)c(C(N)=O)s2)cc1 [Compound R6, 2-(4-butylphenyl)-4-methylthiazole-5-carboxamide]
MRSA ATCC 43300; [3]
  MIC: > 64 µM

## CCCCc1ccc(-c2nc(C)c(C(=O)NC[C@@H](O)CO)s2)cc1 [Compound R8, (R)-2-(4-butylphenyl)-N-(2,3-dihydroxypropyl)-4-methylthiazole-5-carboxamide]
MRSA NRS384 (USA300); [4]
  MIC: 128 µM (≈ 44.6 µg/mL)

## CCCCc1ccc(-c2nc(C)c(C(=O)NC[C@H](O)CO)s2)cc1 [Compound R9, (S)-2-(4-butylphenyl)-N-(2,3-dihydroxypropyl)-4-methylthiazole-5-carboxamide]
MRSA NRS384 (USA300); [4]
  MIC: 128 µM (≈ 44.6 µg/mL)

## CCCCc1ccc(-c2nc(C)c(C(=O)NCCN(C)C)s2)cc1 [Compound R10, 2-(4-butylphenyl)-N-(2-(dimethylamino)ethyl)-4-methylthiazole-5-carboxamide]
MRSA NRS384 (USA300); [4]
  MIC: 128 µM (≈ 44.2 µg/mL)
